The values below come from article PMC4860837, “Structural basis for Sfm1 functioning as a protein arginine methyltransferase” (Cell Discovery, 2015).

For this assay, the target named is T1, Sfm1 (Saccharomyces cerevisiae, UniProt Q12314).
T1 construct: full length, residues 1-213; C-terminal His6 tag (crystal) or N-terminal GST tag (activity assay), E. coli BL21(DE3); monomer
Briefly: X-ray crystallography, […] Å. Type of assay: binding. The conditions noted are these: co-crystallised with SAH ([…] molar ratio), pH […] °C; cofactor pocket of trefoil knot.

Take `Nc1ncnc2c1ncn2[C@@H]1O[C@H](CSCC[C@H](N)C(=O)O)[C@@H](O)[C@H]1O` [SAH]: the “X-ray crystallography, 2.5 Å” value is given as “In the SAH-bound Sfm1 structure, SAH is clearly defined in the electron density map”.
